Measurements taken from ChEMBL document CHEMBL1131402, “Potent piperazine hydroxyethylamine HIV protease inhibitors containing novel P3 ligands” (Bioorg Med Chem Lett, 1998).

How the values were obtained:
[1] = target: Human immunodeficiency virus type 1 protease (Human immunodeficiency virus 1) (UniProt Q72874); test: Inhibition of HIV protease at 0.5 nM
[2] = test system: Human immunodeficiency virus 1; test: Anti-HIV activity was determined in MT-4 cells in the presence of 50% human serum using cytopathic effect assay; type: functional, organism-based; conditions: Human immunodeficiency virus 1, MT4, Serum
Cytochrome P450 3A4 = Cytochrome P450 3A4 (Homo sapiens, UniProt P08684); test: […] inhibition of human liver microsomal Cytochrome P450 3A4; type: ADME
MT4 [3] = test: Cytotoxicity against MT-4 cells was determined by using cytopathic effect assay; type: functional, Homo sapiens
[4] = test system: Human immunodeficiency virus 1; test: Anti-HIV activity was determined in MT-4 cells in the presence of 0% human serum using cytopathic effect assay; type: functional, organism-based; conditions: Human immunodeficiency virus 1, MT4
[5] = test system: Human immunodeficiency virus 1; test: Antiviral activity was assessed against M36M/I, V82F viral strains isolated from patient-313 pretreated with ritonavir(3 fold) at 57th day; type: functional, organism-based
[6] = test system: Human immunodeficiency virus 1; test: Antiviral activity was assessed against M36M/I, I54I/V, V82F/A/S/T viral strains isolated from patient-313 pretreated with ritonavir(3 fold) at 85th day; type: functional, organism-based
[7] = test system: Human immunodeficiency virus 1; test: Antiviral activity was assessed against K20K/R, 36M/I, 154V, A71A/V, V82T viral strains isolated from patient-129 pretreated with ritonavir(7 fold) at 16th week; type: functional, organism-based
[8] = test system: Human immunodeficiency virus 1; test: Antiviral activity was assessed against I54I/V, A71V, V82A, L90L/M viral strains isolated from patient-235 pretreated with ritonavir (2 fold) at 36th week; type: functional, organism-based
[9] = test system: Human immunodeficiency virus 1; test: Antiviral activity was assessed against M36I, I54V, A71V, V82T viral strains isolated from patient-129 pretreated with ritonavir(2 fold) at 8th week; type: functional, organism-based
[10] = test system: Human immunodeficiency virus 1; test: Antiviral activity was assessed against K20K/R, M36M/I, 154V/I, L63L/P, V82/A viral strains isolated from patient-131 pretreated with ritonavir(7 fold) at 28th week; type: functional, organism-based
[11] = target: Human immunodeficiency virus type 1 protease (Human immunodeficiency virus 1) (UniProt Q72874); test: Compound was tested for the inhibition of HIV protease at 120 nM
[12] = target: Human immunodeficiency virus type 1 protease (Human immunodeficiency virus 1) (UniProt Q72874); test: Compound was tested for the inhibition of HIV protease at 27 nM
[13] = test system: Human immunodeficiency virus 1; test: Antiviral activity was assessed against K20K/R, 36M/I, 154V, A71A/V, V82T viral strains isolated from patient-129 pretreated with ritonavir(33 fold) at 16th week; type: functional, organism-based
[14] = test system: Human immunodeficiency virus 1; test: Antiviral activity was assessed against I54I/V, A71V, V82A, L90L/M viral strains isolated from patient-235 pretreated with ritonavir (4 fold) at 36th week; type: functional, organism-based
[15] = test system: Human immunodeficiency virus 1; test: Antiviral activity was assessed against M36I, I54V, A71V, V82T viral strains isolated from patient-129 pretreated with ritonavir(14 fold) at 8th week; type: functional, organism-based
[16] = test system: Human immunodeficiency virus 1; test: Antiviral activity was assessed against K20K/R, M36M/I, 154V/I, L63L/P, V82/A viral strains isolated from patient-131 pretreated with ritonavir(20 fold) at 28th week; type: functional, organism-based
[17] = test system: Human immunodeficiency virus 1; test: Antiviral activity was assessed against M36M/I, V82F viral strains isolated from patient-313 pretreated with ritonavir(9 fold) at 57th day; type: functional, organism-based
[18] = test system: Human immunodeficiency virus 1; test: Antiviral activity was assessed against M36M/I, I54I/V, V82F/A/S/T viral strains isolated from patient-313 pretreated with ritonavir(14 fold) at 85th day; type: functional, organism-based
MT4 [19] = test: Anti-HIV activity was determined in MT-4 cells in the presence of 50% human serum using cytopathic effect assay; NA means not active; type: functional, cell-based
MT4 [20] = test: Anti-HIV activity was determined in MT-4 cells in the presence of 0% human serum using cytopathic effect assay; Not active; type: functional, cell-based
[21] = target: Human immunodeficiency virus type 1 protease (Human immunodeficiency virus 1) (UniProt Q72874); test: Compound was tested for the inhibition of HIV protease at 97 nM
MT4 [22] = test: Cytotoxicity against MT-4 cells was determined by using cytopathic effect assay; NA means not active; type: functional, cell-based, Homo sapiens

Sequence of Cytochrome P450 3A4 (P08684 whole entry): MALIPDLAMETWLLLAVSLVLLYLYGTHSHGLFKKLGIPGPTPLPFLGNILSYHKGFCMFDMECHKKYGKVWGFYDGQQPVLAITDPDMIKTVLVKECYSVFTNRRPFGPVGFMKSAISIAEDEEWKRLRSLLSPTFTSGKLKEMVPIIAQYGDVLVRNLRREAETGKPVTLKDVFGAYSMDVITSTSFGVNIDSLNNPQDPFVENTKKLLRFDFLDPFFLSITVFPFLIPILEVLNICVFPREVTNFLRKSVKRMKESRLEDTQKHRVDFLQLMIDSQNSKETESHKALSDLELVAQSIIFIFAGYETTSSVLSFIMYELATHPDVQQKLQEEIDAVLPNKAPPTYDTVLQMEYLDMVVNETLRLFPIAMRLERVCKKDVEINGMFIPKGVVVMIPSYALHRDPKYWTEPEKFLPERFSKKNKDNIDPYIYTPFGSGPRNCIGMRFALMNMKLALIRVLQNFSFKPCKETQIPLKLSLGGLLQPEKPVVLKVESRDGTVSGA

SMILES | inhibition [1] | EC50 [2] | EC50 [4] | CCIC50 (MT4 [3]) | other results
CC(C)c1nc(COC(=O)N[C@H](C(=O)N[C@@H](Cc2ccccc2)[C@H](O)CN2CCN(Cc3ccc4c(c3)OCO4)C[C@H]2C(=O)NC(C)(C)C)C(C)C)cs1 | 60% | 0.04 µM | 0.007 µM | 13 µM | EC50 [5]: 0.024 µM; IC50 (Cytochrome P450 3A4): 9.6 µM; EC50 [6]: 0.027 µM; EC50 [7]: 0.033 µM; EC50 [8]: 0.024 µM; EC50 [9]: 0.01 µM; EC50 [10]: 0.029 µM
CC(C)c1nc(CN(C)C(=O)N[C@H](C(=O)N[C@@H](Cc2ccccc2)[C@H](O)CN2CCN(Cc3ccccc3)C[C@H]2C(=O)NC(C)(C)C)C(C)C)cs1 | 66% | 0.306 µM | 0.048 µM | 56 µM | 
COc1cc(CN2CCN(C[C@@H](O)[C@H](Cc3ccccc3)NC(=O)[C@@H](NC(=O)N(C)Cc3csc(C(C)C)n3)C(C)C)[C@H](C(=O)NC(C)(C)C)C2)ccc1O | 63% | 0.242 µM | 0.041 µM | 20 µM | 
CC(C)c1nc(COC(=O)N[C@H](C(=O)N[C@@H](Cc2ccccc2)[C@H](O)CN2CCN(Cc3ccc(O)cc3)C[C@H]2C(=O)NC(C)(C)C)C(C)C)cs1 | 54% | 0.226 µM | 0.047 µM | 19 µM | 
CC(C)[C@@H](NC(=O)N(C)Cc1cncs1)C(=O)N[C@@H](Cc1ccccc1)[C@H](O)CN1CCN(Cc2ccccc2)C[C@H]1C(=O)NC(C)(C)C |  | 7 µM | 3 µM | 56 µM | inhibition [11]: 50%
CC(C)c1nc(COC(=O)N[C@H](C(=O)N[C@@H](Cc2ccccc2)[C@H](O)CN2CCN(Cc3ccc(F)cc3)C[C@H]2C(=O)NC(C)(C)C)C(C)C)cs1 | 64% | 0.174 µM | 0.021 µM | 15 µM | 
CC(C)[C@H](NC(=O)N(C)Cc1cncs1)C(=O)N[C@@H](Cc1ccccc1)[C@H](O)CN1CCN(Cc2cncs2)C[C@H]1C(=O)NC(C)(C)C | 50% | 0.211 µM | 0.259 µM | >100 µM | 
CC(C)c1nc(COC(=O)N[C@H](C(=O)N[C@@H](Cc2ccccc2)[C@H](O)CN2CCN(Cc3cccc(O)c3)C[C@H]2C(=O)NC(C)(C)C)C(C)C)cs1 | 53% | 0.142 µM | 0.04 µM | 17 µM | 
CC(C)c1nc(COC(=O)N[C@H](C(=O)N[C@@H](Cc2ccccc2)[C@H](O)CN2CCN(Cc3nc4ccccc4[nH]3)C[C@H]2C(=O)NC(C)(C)C)C(C)C)cs1 | 65% | 1.05 µM | 0.046 µM | 18 µM | 
CC(C)c1nc(COC(=O)N[C@@H](C(=O)N[C@@H](Cc2ccccc2)[C@H](O)CN2CCN(Cc3cncs3)C[C@H]2C(=O)NC(C)(C)C)C(C)C)cs1 |  | 26 µM | 6 µM | 18 µM | inhibition [12]: 50%
CC(C)c1nc(CN(C)C(=O)N[C@H](C(=O)N[C@@H](Cc2ccccc2)C[C@H](O)[C@H](Cc2ccccc2)NC(=O)OCc2cncs2)C(C)C)cs1 [RITONAVIR] |  | 0.81 µM | 0.07 µM | 56 µM | EC50 [13]: 0.368 µM; EC50 [14]: 0.087 µM; EC50 [15]: 0.149 µM; EC50 [16]: 0.365 µM; EC50 [17]: 0.34 µM; EC50 [18]: 0.575 µM
CC(C)[C@@H](NC(=O)N(C)Cc1cncs1)C(=O)N[C@@H](Cc1ccccc1)[C@H](O)CN1CCN(Cc2cncs2)C[C@H]1C(=O)NC(C)(C)C |  |  |  |  | EC50 (MT4 [19]): Not Active; EC50 (MT4 [20]): Not Active; inhibition [21]: 50%; EC50 (MT4 [22]): Not Active

More lines, main results first:

inhibition [1] | EC50 [2] | EC50 [4] | SMILES | CCIC50 (MT4 [3]) | other results
49% | 0.042 µM | 0.01 µM | COc1ccc(CN2CCN(C[C@@H](O)[C@H](Cc3ccccc3)NC(=O)[C@@H](NC(=O)OCc3csc(C)n3)C(C)C)[C@H](C(=O)NC(C)(C)C)C2)cc1OC | 57 µM | IC50 (Cytochrome P450 3A4): 120 µM
45% | 0.074 µM | 0.011 µM | Cc1nc(COC(=O)N[C@H](C(=O)N[C@@H](Cc2ccccc2)[C@H](O)CN2CCN(Cc3ccc4c(c3)OCO4)C[C@H]2C(=O)NC(C)(C)C)C(C)C)cs1 | 56 µM | 
69% | 0.042 µM | 0.005 µM | CC(C)c1nc(COC(=O)N[C@H](C(=O)N[C@@H](Cc2ccccc2)[C@H](O)CN2CCN(Cc3cccc4c3COC4)C[C@H]2C(=O)NC(C)(C)C)C(C)C)cs1 | 18 µM | IC50 (Cytochrome P450 3A4): 12 µM
51% | 0.086 µM | 0.017 µM | COc1ccc(CN2CCN(C[C@@H](O)[C@H](Cc3ccccc3)NC(=O)[C@@H](NC(=O)OCc3cnc(C(C)C)s3)C(C)C)[C@H](C(=O)NC(C)(C)C)C2)cc1OC | 21 µM | 
45% | 0.075 µM | 0.057 µM | CC(C)[C@H](NC(=O)OCc1cncs1)C(=O)N[C@@H](Cc1ccccc1)[C@H](O)CN1CCN(Cc2cncs2)C[C@H]1C(=O)NC(C)(C)C | >100 µM | 
69% | 0.067 µM | 0.012 µM | CC(C)c1nc(COC(=O)N[C@H](C(=O)N[C@@H](Cc2ccccc2)[C@H](O)CN2CCN(Cc3cccnc3)C[C@H]2C(=O)NC(C)(C)C)C(C)C)cs1 | 59 µM | IC50 (Cytochrome P450 3A4): 2.3 µM
44% | 0.059 µM | 0.011 µM | COc1ccc(CN2CCN(C[C@@H](O)[C@H](Cc3ccccc3)NC(=O)[C@@H](NC(=O)OCc3cnc(C)s3)C(C)C)[C@H](C(=O)NC(C)(C)C)C2)cc1OC | 53 µM | 
61% | 0.08 µM | 0.022 µM | CC(C)c1nc(COC(=O)N[C@H](C(=O)N[C@@H](Cc2ccccc2)[C@H](O)CN2CCN(Cc3ccccc3)C[C@H]2C(=O)NC(C)(C)C)C(C)C)cs1 | 45 µM | 
73% | 0.076 µM | 0.017 µM | CC(C)c1nc(COC(=O)N[C@H](C(=O)N[C@@H](Cc2ccccc2)[C@H](O)CN2CCN(Cc3ccncc3)C[C@H]2C(=O)NC(C)(C)C)C(C)C)cs1 | 56 µM | 
67% | 0.067 µM | 0.012 µM | CC(C)c1nc(COC(=O)N[C@H](C(=O)N[C@@H](Cc2ccccc2)[C@H](O)CN2CCN(Cc3cncs3)C[C@H]2C(=O)NC(C)(C)C)C(C)C)cs1 | 57 µM | IC50 (Cytochrome P450 3A4): 15 µM
62% | 0.046 µM | 0.017 µM | COc1ccc(CN2CCN(C[C@@H](O)[C@H](Cc3ccccc3)NC(=O)[C@@H](NC(=O)OCc3csc(C(C)C)n3)C(C)C)[C@H](C(=O)NC(C)(C)C)C2)cc1OC | 18 µM | 
37% | 0.132 µM | 0.016 µM | CCc1ncc(COC(=O)N[C@H](C(=O)N[C@@H](Cc2ccccc2)[C@H](O)CN2CCN(Cc3ccc(OC)c(OC)c3)C[C@H]2C(=O)NC(C)(C)C)C(C)C)s1 | 50 µM | IC50 (Cytochrome P450 3A4): 35 µM
50% | 0.071 µM | 0.011 µM | Cc1nc(COC(=O)N[C@H](C(=O)N[C@@H](Cc2ccccc2)[C@H](O)CN2CCN(Cc3ccc(F)cc3)C[C@H]2C(=O)NC(C)(C)C)C(C)C)cs1 | 39 µM | 
82% | 0.042 µM | 0.019 µM | CCc1nc(COC(=O)N[C@H](C(=O)N[C@@H](Cc2ccccc2)[C@H](O)CN2CCN(Cc3ccc(OC)c(OC)c3)C[C@H]2C(=O)NC(C)(C)C)C(C)C)cs1 | 45 µM | 
40% | 0.104 µM | 0.017 µM | CC(C)[C@H](NC(=O)OCc1cncs1)C(=O)N[C@@H](Cc1ccccc1)[C@H](O)CN1CCN(Cc2ccccc2)C[C@H]1C(=O)NC(C)(C)C | 53 µM | 
60% | 0.084 µM | 0.013 µM | CC(C)c1nc(CN(C)C(=O)N[C@H](C(=O)N[C@@H](Cc2ccccc2)[C@H](O)CN2CCN(Cc3cncs3)C[C@H]2C(=O)NC(C)(C)C)C(C)C)cs1 | >100 µM | 
